# Assay results as given in article PMC5746119, “Pharmacologic characterization of SHR8443, a novel dual inhibitor of phosphatidylinositol 3-kinase and mammalian target of rapamycin” (Oncotarget, 2017).
# Where two headings read alike, the source gives them in different places.
# What was measured:
# [1] = test system: trastuzumab-resistant BT-474/trastuzumab xenografts; experiment: Tumor xenograft growth inhibition; format: in vivo, Balb/cA-nude mice
# Method: (§1) Female, 5–6-wk-old Balb/cA-nude mice were purchased from Shanghai Laboratory Animal Center, Chinese Academy of Sciences (Shanghai, China). […] Tumor volume was calculated as (length × width^2)/2.
# [2] = test system: MCF7 and MDA-MB-468 cells; experiment: Apoptosis by annexin V-FITC/PI staining and FACS; format: cell-based, human; details: 72 h
# Method: (§2) Cells were harvested and fixed in ice-cold 70% ethanol at −20°C overnight. Fixed cells were then treated with 50 μg/mL of propidium iodide and RNase A at 37°C for 30 min. The cell cycle distribution was measured using a FACScan flow cytometer (BD Biosciences, San Jose, CA, USA) and analyzed with ModFit LT Mac V3.0 software. Apoptosis was measured using a FITC Annexin V Apoptosis Detection Kit (BD Biosciences) according to the manufacturer's instructions. Fluorescence was acquired with an Accuri C6 Plus instrument (BD Biosciences).
# [3] = test system: A375 cells; experiment: Cell proliferation assay (SRB); format: cell-based; details: Homo sapiens, A-375, 72 h
# Method: The following human tumor cell lines were obtained from the American Type Culture Collection (Manassas, VA, USA): breast tumor cell lines, MDA-MB-231, MDA-MB-435, MDA-MB-468, BT-474 and MCF7; lung tumor cell lines, A549 and Calu-3; ovarian tumor cell lines, SK-OV-3 and OVCAR3; colon tumor cell lines, SW620 and COLO205; glioma cell line, U-87MG; prostate tumor cell line, PC-3; and melanoma cell line, A375. All cell lines were cultured according to instructions provided by the American Type Culture Collection. The ovarian tumor cell line A2780 was obtained from the National Cancer Institute (Bethesda, MD, USA) and cultured according to the instructions provided. The dabrafenib- and trametinib-resistant A375 cell lines, A375/DR and A375/TR, respectively, were established by culturing parental cells in medium containing gradually increasing concentrations of dabrafenib (0.1–5,000 nM) or trametinib (0.05–50 nM) over the course of 12 months. […]
# (§3) Tumor cells were seeded in 96-well plates and treated with serial dilutions of drugs alone or as a combination of two drugs. After a 72-h incubation, cell proliferation was evaluated by sulforhodamine B (SRB; Sigma) assay. […] The CI value which defines the interaction between two drugs as synergistic (CI < 0.95), additive (CI = 0.95–1.05) or antagonistic (CI > 1.05), was determined on the basis of the median-effect principle using CalcuSyn software.
# [4] = test system: panel of other protein kinases; experiment: Panel of other protein kinases; format: biochemical; details: 1000 nM; data not shown
# [5] = test system: panel of human tumor cell lines; experiment: Cell proliferation assay (SRB), panel of human tumor cell lines; format: cell-based; details: 72 h
# Method: (§4) The following human tumor cell lines were obtained from the American Type Culture Collection (Manassas, VA, USA): breast tumor cell lines, MDA-MB-231, MDA-MB-435, MDA-MB-468, BT-474 and MCF7; lung tumor cell lines, A549 and Calu-3; ovarian tumor cell lines, SK-OV-3 and OVCAR3; colon tumor cell lines, SW620 and COLO205; glioma cell line, U-87MG; prostate tumor cell line, PC-3; and melanoma cell line, A375. All cell lines were cultured according to instructions provided by the American Type Culture Collection. The ovarian tumor cell line A2780 was obtained from the National Cancer Institute (Bethesda, MD, USA) and cultured according to the instructions provided. The dabrafenib- and trametinib-resistant A375 cell lines, A375/DR and A375/TR, respectively, were established by culturing parental cells in medium containing gradually increasing concentrations of dabrafenib (0.1–5,000 nM) or trametinib (0.05–50 nM) over the course of 12 months. […] All the cells have been tested and authenticated by Genesky Biotechnologies. Inc. (Shanghai, China) using fluorescent amplified restriction fragment polymorphism (FAFLP) method.
# as §3
# [6] = test system: PC-3 xenografts; experiment: Tumor xenograft growth inhibition; format: in vivo, Balb/cA-nude mice; details: 30 mg/kg oral daily, final treatment day
# Method: as §1
# [7] = test system: U-87MG xenografts; experiment: Tumor xenograft growth inhibition; format: in vivo, Balb/cA-nude mice
# Method: as §1
# [8] = test system: KRAS mutant A549 xenografts; experiment: Tumor xenograft growth inhibition; format: in vivo, Balb/cA-nude mice; details: 15 mg/kg oral daily
# Method: as §1
# [9] = test system: BT-474 xenografts; experiment: Tumor xenograft growth inhibition; format: in vivo, Balb/cA-nude mice
# Method: as §1
# [10] = test system: MCF7, MDA-MB-468, COLO205, and A549 cell lines; experiment: Cell cycle distribution by flow cytometry; format: cell-based, human; details: 24 h treatment
# Method: as §2
# [11] = test system: A549 cells; experiment: Autophagy, LC3 immunoblotting; format: cell-based, human; details: 48 h
# Method: (§5) After drug treatment, cells were lysed in sodium dodecyl sulfate (SDS) sample buffer (100 mM Tris-HCl pH 6.8, 2% SDS, 20% glycerol, 1 mM dithiothreitol). Cell lysates containing equal amounts of protein were resolved by SDS-PAGE and transferred to polyvinylidene difluoride membranes. Blots were probed with primary antibodies, and then incubated with the appropriate secondary antibodies (Millipore). Immunoreactive bands were visualized using enhanced chemiluminescence reagents (Millipore).
# [12] = Tolerability (deaths, body weight) in xenograft-bearing mice; format: in vivo, Balb/cA-nude mice; details: xenograft-bearing mice during the course of treatment
# Method: as §1
# [13] = test system: A375/DR (dabrafenib-resistant) cells; experiment: Cell proliferation assay (SRB); format: cell-based, human; details: for resistance factor (RF): A375/DR versus parental A375
# Method: as §4, §3
# [14] = test system: A375/TR (trametinib-resistant) cells; experiment: Cell proliferation assay (SRB); format: cell-based, human; details: for resistance factor (RF): A375/TR versus parental A375
# Method: as §4, §3
# [15] = test system: PI3K/mTOR signaling (AKT, S6, ERK phosphorylation); experiment: Western blotting of PI3K/mTOR signaling in tumor cell lines; format: cell-based, human
# Method: as §5
# [16] = Pharmacokinetic study in U-87MG tumor-bearing mice; format: in vivo, Balb/cA-nude mice; details: single oral dose 10 mg/kg; for Cmax: female, Balb/cA-nude, mouse
# Method: as §1
# Pharmacokinetic/pharmacodynamic studies were carried out as described previously. Mice bearing U-87MG tumors received a single oral dose of 10 mg/kg SHR8443 or vehicle, and tumor tissues and blood were collected at different times. Concentrations of SHR8443 in plasma and tissue were determined by HPLC/tandem mass spectrometry. Tumor samples were analyzed by Western blotting. Animal experiments were conducted in accordance with the Institutional Animal Care and Use Committee guidelines of Shanghai Institute of Materia Medica, Chinese Academy of Sciences.
# [17] = target: PI3Kβ (Homo sapiens, UniProt P42338); experiment: PI3K ELISA (PI3Kinase Activity/Inhibitor Assay Kit); format: biochemical; details: PI3Kβ (p110β); means ± SD (n = 3)
# Sequence of PI3Kβ (P42338 whole entry): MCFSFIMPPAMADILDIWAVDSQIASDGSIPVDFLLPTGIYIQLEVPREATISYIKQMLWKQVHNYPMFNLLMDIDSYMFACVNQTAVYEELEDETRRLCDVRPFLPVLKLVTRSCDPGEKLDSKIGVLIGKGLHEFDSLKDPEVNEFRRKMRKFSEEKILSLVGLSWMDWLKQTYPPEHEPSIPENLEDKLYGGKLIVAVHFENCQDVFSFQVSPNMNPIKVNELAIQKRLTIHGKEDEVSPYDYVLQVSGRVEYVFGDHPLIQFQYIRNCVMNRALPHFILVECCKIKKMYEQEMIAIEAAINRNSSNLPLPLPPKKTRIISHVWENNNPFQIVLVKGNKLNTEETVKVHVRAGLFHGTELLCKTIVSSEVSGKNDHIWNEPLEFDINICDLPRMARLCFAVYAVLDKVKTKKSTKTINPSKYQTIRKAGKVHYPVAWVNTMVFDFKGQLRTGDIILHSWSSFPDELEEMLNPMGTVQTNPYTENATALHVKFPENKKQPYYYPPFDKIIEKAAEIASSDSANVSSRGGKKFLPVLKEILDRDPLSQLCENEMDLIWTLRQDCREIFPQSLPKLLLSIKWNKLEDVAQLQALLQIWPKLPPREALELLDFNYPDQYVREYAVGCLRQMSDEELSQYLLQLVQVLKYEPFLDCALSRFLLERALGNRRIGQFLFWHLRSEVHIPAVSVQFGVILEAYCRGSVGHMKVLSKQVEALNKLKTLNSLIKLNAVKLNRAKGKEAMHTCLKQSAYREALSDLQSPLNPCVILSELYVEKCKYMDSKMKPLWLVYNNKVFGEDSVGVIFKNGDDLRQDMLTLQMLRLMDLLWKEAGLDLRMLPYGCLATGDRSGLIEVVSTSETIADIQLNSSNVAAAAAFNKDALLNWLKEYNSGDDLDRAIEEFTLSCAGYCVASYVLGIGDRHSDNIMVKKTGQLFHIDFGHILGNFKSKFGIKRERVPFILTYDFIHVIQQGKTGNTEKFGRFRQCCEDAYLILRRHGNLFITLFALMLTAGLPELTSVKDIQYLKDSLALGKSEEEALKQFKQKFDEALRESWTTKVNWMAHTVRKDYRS
# Sequence of PI3Kβ (P27986 whole entry partner): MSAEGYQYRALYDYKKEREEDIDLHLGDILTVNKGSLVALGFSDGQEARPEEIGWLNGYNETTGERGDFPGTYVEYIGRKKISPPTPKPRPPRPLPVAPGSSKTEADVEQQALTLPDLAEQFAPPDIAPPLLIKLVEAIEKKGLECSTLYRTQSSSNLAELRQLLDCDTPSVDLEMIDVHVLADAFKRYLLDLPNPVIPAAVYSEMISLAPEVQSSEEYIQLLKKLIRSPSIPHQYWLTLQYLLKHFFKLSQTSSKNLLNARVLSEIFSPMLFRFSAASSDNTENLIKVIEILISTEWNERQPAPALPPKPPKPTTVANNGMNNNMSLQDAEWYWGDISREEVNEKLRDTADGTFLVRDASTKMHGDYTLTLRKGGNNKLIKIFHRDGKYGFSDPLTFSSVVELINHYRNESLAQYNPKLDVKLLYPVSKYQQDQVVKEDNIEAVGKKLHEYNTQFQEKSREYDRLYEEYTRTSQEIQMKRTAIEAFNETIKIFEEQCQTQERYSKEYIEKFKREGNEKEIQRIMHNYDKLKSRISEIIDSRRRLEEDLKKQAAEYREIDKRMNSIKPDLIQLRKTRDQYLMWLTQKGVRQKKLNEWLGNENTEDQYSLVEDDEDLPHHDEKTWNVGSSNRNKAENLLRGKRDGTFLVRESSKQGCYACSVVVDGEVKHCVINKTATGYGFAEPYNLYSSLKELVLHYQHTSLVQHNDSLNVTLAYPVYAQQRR
# Method: (§6) PI3K enzyme-linked immunosorbent assays (ELISAs) were performed using the PI3Kinase Activity/Inhibitor Assay Kit (Millipore, Bedford, MA, USA) according to the manufacturer's instructions as described previously. mTOR kinase activity was assayed using the K-LISA mTOR Activity Kit (Calbiochem, Bedford, MA, USA) according to the manufacturer's instructions.
# [18] = target: PI3Kα (Homo sapiens, UniProt P42336); experiment: as above; format: biochemical; details: PI3Kα (p110α); means ± SD (n = 3)
# Sequence of PI3Kα (P42336 whole entry): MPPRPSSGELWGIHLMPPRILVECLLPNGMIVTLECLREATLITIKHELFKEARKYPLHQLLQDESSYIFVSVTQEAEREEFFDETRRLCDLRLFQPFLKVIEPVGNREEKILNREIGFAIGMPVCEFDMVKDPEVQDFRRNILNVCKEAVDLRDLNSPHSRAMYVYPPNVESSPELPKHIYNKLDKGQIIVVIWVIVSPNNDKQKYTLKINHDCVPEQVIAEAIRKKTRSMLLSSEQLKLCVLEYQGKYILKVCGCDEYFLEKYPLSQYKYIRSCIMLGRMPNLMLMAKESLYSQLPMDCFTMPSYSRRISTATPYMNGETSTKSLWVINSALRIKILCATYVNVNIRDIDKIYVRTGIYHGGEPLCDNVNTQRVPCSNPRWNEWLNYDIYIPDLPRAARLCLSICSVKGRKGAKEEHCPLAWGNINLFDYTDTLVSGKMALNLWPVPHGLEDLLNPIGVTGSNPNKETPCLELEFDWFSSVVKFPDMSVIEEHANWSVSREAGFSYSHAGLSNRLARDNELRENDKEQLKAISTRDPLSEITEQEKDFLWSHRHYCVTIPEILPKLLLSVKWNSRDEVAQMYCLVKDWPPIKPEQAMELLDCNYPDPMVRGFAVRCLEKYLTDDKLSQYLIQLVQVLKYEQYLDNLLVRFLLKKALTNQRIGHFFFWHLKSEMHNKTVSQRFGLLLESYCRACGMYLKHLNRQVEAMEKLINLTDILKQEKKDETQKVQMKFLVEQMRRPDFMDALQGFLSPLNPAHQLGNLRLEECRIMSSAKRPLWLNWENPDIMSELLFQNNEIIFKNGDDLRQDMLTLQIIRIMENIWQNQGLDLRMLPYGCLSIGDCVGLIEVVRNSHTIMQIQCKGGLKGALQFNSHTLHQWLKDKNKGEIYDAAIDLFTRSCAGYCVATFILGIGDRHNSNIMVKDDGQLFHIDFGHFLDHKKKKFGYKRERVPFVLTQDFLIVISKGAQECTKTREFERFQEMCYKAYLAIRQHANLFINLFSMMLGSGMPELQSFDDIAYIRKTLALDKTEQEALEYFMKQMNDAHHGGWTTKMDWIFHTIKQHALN
# Sequence of PI3Kα (P27986 whole entry partner): as the sequence (P27986 whole entry partner) above
# Method: as §6
# [19] = target: PI3Kγ (Homo sapiens, UniProt P48736); experiment: as above; format: biochemical; details: PI3Kγ (p110γ); means ± SD (n = 3)
# Sequence of PI3Kγ (P48736 whole entry): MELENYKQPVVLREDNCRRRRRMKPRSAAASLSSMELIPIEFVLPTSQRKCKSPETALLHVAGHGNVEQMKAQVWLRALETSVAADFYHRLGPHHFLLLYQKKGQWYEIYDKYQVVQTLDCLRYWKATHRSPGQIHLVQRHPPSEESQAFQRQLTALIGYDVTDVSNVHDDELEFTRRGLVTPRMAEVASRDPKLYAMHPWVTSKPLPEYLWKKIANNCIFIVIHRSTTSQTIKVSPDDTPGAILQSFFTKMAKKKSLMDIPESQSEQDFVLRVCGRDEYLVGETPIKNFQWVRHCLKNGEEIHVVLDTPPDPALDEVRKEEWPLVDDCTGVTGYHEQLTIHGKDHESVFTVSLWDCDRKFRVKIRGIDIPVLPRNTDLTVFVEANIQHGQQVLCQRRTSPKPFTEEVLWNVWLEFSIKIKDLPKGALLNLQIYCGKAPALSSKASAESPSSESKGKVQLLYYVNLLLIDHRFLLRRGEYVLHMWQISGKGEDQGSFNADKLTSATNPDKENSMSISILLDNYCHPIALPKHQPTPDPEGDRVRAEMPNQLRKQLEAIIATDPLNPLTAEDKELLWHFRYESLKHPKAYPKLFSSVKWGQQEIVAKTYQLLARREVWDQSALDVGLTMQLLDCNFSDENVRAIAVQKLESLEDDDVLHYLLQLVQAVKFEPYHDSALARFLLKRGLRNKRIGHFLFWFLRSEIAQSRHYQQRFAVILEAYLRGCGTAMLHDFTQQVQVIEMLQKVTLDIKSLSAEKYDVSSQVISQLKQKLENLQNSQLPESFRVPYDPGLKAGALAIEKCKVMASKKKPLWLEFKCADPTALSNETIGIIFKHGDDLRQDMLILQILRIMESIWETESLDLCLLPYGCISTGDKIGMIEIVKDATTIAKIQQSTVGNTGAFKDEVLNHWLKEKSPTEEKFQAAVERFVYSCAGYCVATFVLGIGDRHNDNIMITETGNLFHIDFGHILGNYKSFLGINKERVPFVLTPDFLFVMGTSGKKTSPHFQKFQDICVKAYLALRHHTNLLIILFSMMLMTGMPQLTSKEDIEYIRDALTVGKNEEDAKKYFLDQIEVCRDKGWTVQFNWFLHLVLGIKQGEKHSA
# Method: as §6
# [20] = target: PI3Kδ (Homo sapiens, UniProt O00329); experiment: as above; format: biochemical; details: PI3Kδ (p110δ); means ± SD (n = 3)
# Sequence of PI3Kδ (O00329 whole entry): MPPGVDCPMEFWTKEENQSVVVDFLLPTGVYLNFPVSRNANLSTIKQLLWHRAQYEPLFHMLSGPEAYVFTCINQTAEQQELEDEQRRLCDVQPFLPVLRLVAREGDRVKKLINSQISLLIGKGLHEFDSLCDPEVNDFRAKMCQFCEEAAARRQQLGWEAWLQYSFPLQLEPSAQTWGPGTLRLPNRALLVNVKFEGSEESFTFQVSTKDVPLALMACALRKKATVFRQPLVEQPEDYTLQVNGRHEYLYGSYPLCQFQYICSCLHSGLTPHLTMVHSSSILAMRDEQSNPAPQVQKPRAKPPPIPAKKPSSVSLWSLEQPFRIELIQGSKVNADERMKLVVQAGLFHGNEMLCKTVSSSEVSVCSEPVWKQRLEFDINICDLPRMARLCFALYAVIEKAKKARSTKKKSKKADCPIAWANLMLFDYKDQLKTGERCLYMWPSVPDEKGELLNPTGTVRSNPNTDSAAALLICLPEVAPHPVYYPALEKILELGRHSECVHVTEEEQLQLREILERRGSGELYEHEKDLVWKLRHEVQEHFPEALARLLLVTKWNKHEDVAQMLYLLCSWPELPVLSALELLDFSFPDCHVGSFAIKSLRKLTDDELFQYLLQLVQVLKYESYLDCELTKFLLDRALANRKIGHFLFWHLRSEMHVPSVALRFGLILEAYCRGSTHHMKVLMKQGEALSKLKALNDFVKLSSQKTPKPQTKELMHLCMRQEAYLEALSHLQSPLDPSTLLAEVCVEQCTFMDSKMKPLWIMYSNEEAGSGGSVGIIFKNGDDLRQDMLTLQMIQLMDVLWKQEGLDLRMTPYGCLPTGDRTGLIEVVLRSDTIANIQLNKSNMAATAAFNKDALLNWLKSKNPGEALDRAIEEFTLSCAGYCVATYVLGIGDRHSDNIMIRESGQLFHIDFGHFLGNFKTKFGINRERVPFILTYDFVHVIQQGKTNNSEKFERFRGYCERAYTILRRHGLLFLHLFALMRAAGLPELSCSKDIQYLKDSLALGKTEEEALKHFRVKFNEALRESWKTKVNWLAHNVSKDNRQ
# Sequence of PI3Kδ (P27986 whole entry partner): as the sequence (P27986 whole entry partner) above
# Method: as §6
# [21] = target: mTOR (Homo sapiens, UniProt P42345); experiment: mTOR kinase activity assay (K-LISA mTOR Activity Kit); format: biochemical; details: means ± SD (n = 3)
# Method: as §6
# [22] = 30 mg/kg oral daily, final treatment day
smiles,measurement,setting,value
"Cn1c(=O)n(-c2ccc(C(C)(C)C#N)cc2)c2c3cc(-c4cnc5ccccc5c4)ccc3ncc21 [BEZ235, reference compound]",tumor growth inhibition (TGI),[1]; 60 mg/kg oral daily,39%
"CNC(=O)Nc1ccc(-c2ccc3ncc4c(c3c2)n(-c2cccc(C(F)(F)F)c2)c(=O)n4C)cn1 [SHR8443, 1-methyl-3-(5-(3-methyl-2-oxo-1-(3-(trifluoromethyl)phenyl)-2,3-dihydro-1H–imidazo [4,5-c]quinolin-8-yl)pyridin-2-yl) urea]",necrotic/apoptotic cell death,[2],concentration-dependent increase
same,IC50,[3],4.1 nM
same,inhibitory activity against a panel of other protein kinases,[4],little inhibitory activity
same,IC50,"[5]; read-out: IC50 values, proliferation, range over all tested tumor cells",2.9 to 13.9 nM
same,IC50,"[5]; read-out: average (mean) IC50, proliferation, all tested tumor cells",7.5 nM
same,IC50,[5]; read-out: mean IC50 in KRAS/BRAF mutant tumor cells,7.3 nM
same,tumor growth inhibition (TGI),[6],75%
same,tumor regression,[7]; 30 mg/kg,one of six tumors
same,tumor growth inhibition (TGI),[7]; [22],95%
same,tumor growth inhibition (TGI),[8],86%
same,tumor growth inhibition (TGI),[1]; 30 mg/kg oral daily,79%
same,tumor regression,[9]; 30 mg/kg,one of six tumors
same,tumor growth inhibition (TGI),[9]; [22],87%
same,cell cycle effect,[10],concentration-dependent G1-phase cell-cycle arrest
same,LC3-II production (autophagy),[11],increased the production of LC3-II in a concentration-dependent manner
same,"tolerability (drug-related deaths, body weight loss)",[12],well tolerated
same,IC50,"[13]; Homo sapiens, A-375, A375/DR cells, 72 h, SRB assay",3.4 nM
same,IC50,"[14]; Homo sapiens, A-375, A375/TR cells, 72 h, SRB assay",4.9 nM
same,phosphorylation of AKT and S6,"[15]; COLO205 (BRAF mutant), A549 and SW620 (KRAS mutant) cells, 3 h",significantly inhibited
same,level of phosphorylated ERK (pERK),"[15]; COLO205, A549, SW620 cells",No change
same,AKT and S6 phosphorylation,"[15]; MCF7, MDA-MB-468, BT-474 breast cancer cells, 3 h",inhibited
same,reversibility of inhibitory activity after removal from medium,"[15]; MDA-MB-468 cells, 100 nM for 2 h then drug-free medium",reversible
same,"duration of inhibition of AKT, S6K and S6 phosphorylation","[15]; U-87MG cells, 100 nM",at least 48 h
same,Cmax,"[16]; plasma, read-out: Cmax in plasma",735 ng/mL
same,Cmax,"[16]; tumor tissue, read-out: Cmax in tumor tissue",181 ng/g
same,time of Cmax (plasma and tumor tissue),[16],8 h
same,IC50,[17],15.8 ± 3.8 nM
same,IC50,[18],0.1 nM
same,IC50,[19],0.2 ± 0.2 nM
same,IC50,[20],0.7 ± 0.2 nM
same,IC50,[21],7.8 ± 1.1 nM
CC(C)(C)c1nc(-c2cccc(NS(=O)(=O)c3c(F)cccc3F)c2F)c(-c2ccnc(N)n2)s1 [dabrafenib],resistance factor (RF),[13],839.2
same,resistance factor (RF),[14],61.0
CC(=O)Nc1cccc(-n2c(=O)n(C3CC3)c(=O)c3c(Nc4ccc(I)cc4F)n(C)c(=O)c(C)c32)c1 [trametinib],resistance factor (RF),[13],45.1
same,resistance factor (RF),[14],39.8
